This note sets out measurements from patent US3931299A, “9β-Formyl prostaglandin derivatives” (American Home Products Corporation, priority 1974, dated 1976).

Test [1] in a line: hypotension in the anesthetized dog by the intravenous route. It counts as in vivo. As to the method:
In the use of the compounds of the invention to produce hypotensive effects in warm-blooded animals, administration by the injectable route is preferred, preferably the intravenous route.
Thus in the anesthetized dog by the intravenous route the dose to produce hypotension is from about 1 μg/kg. to about 200 μg/kg. and preferably from about 10 μg/kg. to about 100 μg/kg.
Using this procedure the following results were obtained.

The subject of test [2] is bronchoconstricting effects of a standard dose of acetylcholine. Description: bronchodilation in the guinea pig by aerosol inhalation (method of Rosenthale et al.). The format is in vivo. An excerpt: In using the compounds of the invention to produce bronchodilating effects in warm-blooded animals, they may be administered in a variety of dosage forms: oral, injectable, and aerosol inhalation. Aerosol inhalation is a preferred method because of its rapid onset of action, great potency, and specificity of action. The particular dosage to obtain the bronchodilating effect will vary with the particular compound employed, the particular animal involved, and the degree of bronchodilation desired. In the guinea pig, by aerosol inhalation, the dose to produce bronchodilation is from about 0.15 micrograms to about 100 micrograms, and preferably from about 0.15 to about 50 micrograms. The bronchodilation produced upon aerosol inhalation can be observed by the method of Rosenthale et al., J. Pharmacol. Exp. Ther., 178, 541 (1971).
Using this procedure, the following results were obtained.

For the compound `C=C1CC[C@H](/C=C/[C@@H](O)CCCCC)[C@H]1CCCCCCC(=O)O` [2β-[(3S)-3-Hydroxy-Trans-1-Octenyl]-5-Methylene-1α-Cyclopentaneheptanoic Acid], the Δb.p. in test [1] (dose 100 μg/kg.) was -32 mm. Hg.
For the compound `CCCCC[C@H](O)/C=C/[C@H]1CC[C@@H](C=O)[C@@H]1CCCCCCC(=O)O` [5β-Formyl-2β-[(3S)-3-Hydroxy-Trans-1-Octenyl]-1α-Cyclopentane Heptanoic Acid], the Δb.p. in test [1] (dose 100 μg/kg.) is -27 mm. Hg. In addition, the “Percent inhibition of the bronchoconstricting effects of a standard dose of acetylcholine” value (shortened to “Percent inhibition”) in test [2] (dose 0.15 μg) is 36%.
As for `C=C1CC[C@H](/C=C/[C@@H](O)CCCCC)[C@H]1C/C=C\CCCC(=O)O` [7-[2β-((3S)-3-Hydroxy-Trans-1-Octenyl)-5-Methylene-1α-Cyclopentyl]-Cis-5-Heptenoic Acid], the “Percent inhibition” value in test [2] (dose 1.5 μg) worked out at 46%.
As to `CCCCC[C@H](O)/C=C/[C@H]1CC[C@@H](C=O)[C@@H]1C/C=C\CCCC(=O)O` [7-[5β-Formyl-2β-((3S)-3-Hydroxy-Trans-1-Octenyl)-1α-Cyclopentyl]-Cis-5-Heptenoic Acid], the Δb.p. in test [1] (dose 10 μg/kg.) is listed as -17 mm. Hg. The “Percent inhibition” value in test [2] (dose 1.5 μg) is reported as 55%.
`CCCCC[C@H](O)/C=C/[C@H]1CC[C@@H](CO)[C@@H]1C/C=C\CCCC(=O)O` [7-[5β-Hydroxymethyl-2β-((3S)-3-Hydroxy-Trans-1-Octenyl)-1α-Cyclopentyl]-Cis-5-Heptenoic Acid]: the Δb.p. in test [1] (dose 100 μg/kg.) was -27 mm. Hg.
